Like-named read-outs stand apart in the source and are kept apart here.
Assays:
[1] = test system: HCV genotype 1b (Con1) replicon in HUH-7 cells; test: HCV replicon luciferase reporter assay, genotype 1b; type: cell-based; conditions: Hepatitis C virus, Huh-7, 72 h, 3 days incubation
In short: (§1)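 Replicon inhibition for both genotypes was measured as Renilla luciferase signal (EnduRen, 7.5 μM final, 2 h) after 3-day, 37° C exposure of replicon-bearing HUH-7 cells in 4% FCS DMEM, 0.5% DMSO. The 1b construct carries S1179I; the 1a H77 construct carries P1496L and S2204I. Twenty-point, 3-fold dilutions were fitted four-parametrically for EC50, and CC50 was taken from multiplexed Cell Titer-Blue.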

[2] = test system: HCV genotype 1a (H77 strain) replicon in HUH-7 cells; test: HCV replicon luciferase reporter assay, genotype 1a; type: cell-based; conditions: Hepatitis C virus, Huh-7, 72 h, 3 days incubation
In short: as §1

[3] = HCV genotype 1b replicon luciferase, read-out: LE_1b (EC50, range)
[4] = HCV genotype 1a replicon luciferase, read-out: LE_1a (EC50, range)
[5] = GETYPE1B, HCV genotype 1b replicon luciferase, read-out: LE_1b (EC50, range)
[6] = GETYPE1A, HCV genotype 1a replicon luciferase, read-out: LE_1a (EC50, range)
[7] = HCV genotype 1b replicon luciferase assay, range class, read-out: LE_1b (EC50, range)
[8] = HCV genotype 1a replicon luciferase assay, range class, read-out: LE_1a (EC50, range)

Compound | EC50 [1, 3] [nM] | EC50 [2, 4] [nM] | further results
C[C@H]1CC/C=C\[C@@H]2C[C@@]2(C(=O)NS(=O)(=O)C2(C)CC2)NC(=O)[C@@H]2C[C@@H](Oc3nccc4c5c(ccc34)OCCO5)CN2C(=O)[C@@H](NC(=O)O[C@@H]2C[C@@H]3C[C@@H]3C2)[C@H](C)C1 [Compound 5248, (1R,3r,5 S)-bicyclo[3.1.0]hexan-3-yl((2R,6S,7R,9S,13aS,14aR,16aS,Z)-2-((2,3-dihydro-[1,4]dioxino[2,3-f]isoquinolin-7-yl)oxy)-7,9-dimethyl-14a-(((1-methylcyclopropyl)sulfonyl)carbamoyl)-5,16-dioxo-1,2,3,5,6,7,8,9,10,11,13a,14,14a,15,16,16a-hexadecahydrocyclopropa[e]pyrrolo[1,2-a][1,4]diazacyclopentadecin-6-yl)carbamate] | < 5.46 | 4.82 to 103 | –
COc1ccc2nc(O[C@@H]3C[C@H]4C(=O)N[C@]5(C(=O)NS(=O)(=O)C6(C)CC6)C[C@H]5/C=C\CC[C@@H](C)C[C@@H](C)[C@H](NC(=O)OC(C)(C)C)C(=O)N4C3)c(-c3ccc(OC(C)C)cc3)nc2c1 [Compound 4260, tert-butyl ((2R,6S,7R,9R,13aS,14aR,16aS,Z)-2-((3-(4-isopropoxyphenyl)-6-methoxyquinoxalin-2-yl)oxy)-7,9-dimethyl-14a-(((1-methylcyclopropyl)sulfonyl)carbamoyl)-5,16-dioxo-1,2,3,5,6,7,8,9,10,11,13a,14,14a,15,16,16a-hexadecahydrocyclopropa[e]pyrrolo[1,2-a][1,4]diazacyclopentadecin-6-yl)carbamate] | 1.01 to 5 | 1.01 to 5 | –
CCCOc1cnc(O[C@@H]2C[C@H]3C(=O)N[C@]4(C(=O)NS(=O)(=O)C5CC5)C[C@H]4/C=C\CC[C@@H](C)C[C@@H](C)[C@H](NC(=O)O[C@@H]4C[C@@H]5C[C@@H]5C4)C(=O)N3C2)c2ccccc12 [Compound 5093, (1R,3r,5S)-bicyclo[3.1.0]hexan-3-yl((2R,6S,7R,9R,13aS,14aR,16aS,Z)-14a-((cyclopropylsulfonyl)carbamoyl)-7,9-dimethyl-5,16-dioxo-2-((4-propoxyisoquinolin-1-yl)oxy)-1,2,3,5,6,7,8,9,10,11,13a,14,14a,15,16,16a-hexadecahydrocyclopropa[e]pyrrolo[1,2-a][1,4]diazacyclopentadecin-6-yl)carbamate] | < 5.46 | 4.82 to 103 | –
[2H]C([2H])([2H])C(OC(=O)N[C@@H]1C(=O)N2C[C@H](Oc3ncc(OC)c4ccc(F)cc34)C[C@H]2C(=O)N[C@]2(C(=O)NS(=O)(=O)C3CC3)C[C@H]2/C=C\CC[C@@H](C)C[C@H]1CC)(C([2H])([2H])[2H])C(F)(F)F [Compound 5467] | 0.1 to 0.5 | 1.01 to 5 | –
COc1ccc2nc(C(F)(F)F)c(O[C@@H]3C[C@H]4C(=O)N[C@]5(C(=O)NS(=O)(=O)C6(C)CC6)C[C@H]5/C=C\CC[C@@H](C)C[C@@H](C)[C@H](NC(=O)OC(C)(C)C(F)(F)F)C(=O)N4C3)nc2c1 [Compound 4195] | – | – | EC50 [1, 5]: < 5.46 nM; EC50 [2, 6]: < 5.46 nM
[2H]C([2H])([2H])C(OC(=O)N[C@@H]1C(=O)N2C[C@H](Oc3nn(CC)c(=O)c4ccccc34)C[C@H]2C(=O)N[C@]2(C(=O)NS(=O)(=O)C3CC3)C[C@H]2/C=C\CC[C@@H](C)C[C@H]1C)(C([2H])([2H])[2H])C(F)(F)F [Compound 5069] | 4.82 to 103 | 4.82 to 103 | EC50 ([1]; HCV genotype 1b replicon luciferase, read-out: LE_1b (EC50)): 7.21 nM; EC50 ([2]; HCV genotype 1a replicon luciferase, read-out: LE_1a (EC50)): 14.9 nM
CC[C@@H]1C[C@H](C)CC/C=C\[C@@H]2C[C@@]2(C(=O)NS(=O)(=O)C2CC2)NC(=O)[C@@H]2C[C@@H](Oc3ncc(C(=O)O)c4cc(OC)ccc34)CN2C(=O)[C@H]1NC(=O)OC(C)(C)C [Compound 4278, 1-(((2R,6S,7R,9R,13aS,14aR,16aS,Z)-6-((tert-butoxycarbonyl)amino)-14a-((cyclopropylsulfonyl)carbamoyl)-7-ethyl-9-methyl-5,16-dioxo-1,2,3,5,6,7,8,9,10,11,13a,14,14a,15,16,16a-hexadecahydrocyclopropa[e]pyrrolo[1,2-a][1,4]diazacyclopentadecin-2-yl)oxy)-6-methoxyisoquinoline-4-carboxylic acid] | 35 to 620 | 35 to 620 | –
COc1ccc2c(O[C@@H]3C[C@H]4C(=O)N[C@]5(C(=O)NS(=O)(=O)C6(F)CC6)C[C@H]5/C=C\CC[C@H](C)C[C@@H](C)[C@H](NC(=O)OC(C)(C)C)C(=O)N4C3)nccc2c1 [Compound 10, tert-butyl ((2R,6S,7R,9S,13aS,14aR,16aS,Z)-14a-(((1-fluorocyclopropyl)sulfonyl)carbamoyl)-2-((6-methoxyisoquinolin-1-yl)oxy)-7,9-dimethyl-5,16-dioxo-1,2,3,5,6,7,8,9,10,11,13a,14,14a,15,16,16a-hexadecahydrocyclopropa[e]pyrrolo[1,2-a][1,4]diazacyclopentadecin-6-yl)carbamate] | – | – | EC50 [1, 7]: < 5.46 nM; EC50 ([1]; HCV genotype 1b replicon luciferase assay, read-out: LE_1b (EC50)): 0.8 nM; EC50 [2, 8]: < 5.46 nM; EC50 ([2]; HCV genotype 1a replicon luciferase assay, read-out: LE_1a (EC50)): 3.08 nM
CC[C@@H]1C[C@H](C)CC/C=C\[C@@H]2C[C@@]2(C(=O)NS(=O)(=O)C2(C)CC2)NC(=O)[C@@H]2C[C@@H](Oc3nccc4cc(OC)c(F)cc34)CN2C(=O)[C@H]1NC(=O)N1CC(C)OC(C)C1 (stereo partly drawn) [Compound 4334, N-((2R,6S,7R,9R,13aS,14aR,16aS,Z)-7-ethyl-2-((7-fluoro-6-methoxyisoquinolin-1-yl)oxy)-9-methyl-14a-(((1-methylcyclopropyl)sulfonyl)carbamoyl)-5,16-dioxo-1,2,3,5,6,7,8,9,10,11,13a,14,14a,15,16,16a-hexadecahydrocyclopropa[e]pyrrolo[1,2-a][1,4]diazacyclopentadecin-6-yl)-2,6-dimethylmorpholine-4-carboxamide] | 1.01 to 5 | 1.01 to 5 | –
COCCn1nc(O[C@@H]2C[C@H]3C(=O)N[C@]4(C(=O)NS(=O)(=O)C5CC5)C[C@H]4/C=C\CC[C@@H](C)C[C@@H](C)[C@H](NC(=O)OC(C)(C)C(C)(F)F)C(=O)N3C2)c2ccccc2c1=O [Compound 1024, 3,3-difluoro-2-methylbutan-2-yl((2R,6S,7R,9R,13aS,14aR,16aS,Z)-14a-((cyclopropylsulfonyl)carbamoyl)-2-((3-(2-methoxyethyl)-4-oxo-3,4-dihydrophthalazin-1-yl)oxy)-7,9-dimethyl-5,16-dioxo-1,2,3,5,6,7,8,9,10,11,13a,14,14a,15,16,16a-hexadecahydrocyclopropa[e]pyrrolo[1,2-a][1,4]diazacyclopentadecin-6-yl)carbamate] | – | – | EC50 [1, 7]: 4.82 to 103 nM; EC50 [2, 8]: 4.82 to 103 nM
CCOc1cc2ccccc2c(O[C@@H]2C[C@H]3C(=O)N[C@]4(C(=O)NS(=O)(=O)C5(C)CC5)C[C@H]4/C=C\CC[C@@H](C)C[C@@H](C)[C@H](NC(=O)OC(C)(C)C(C)(F)F)C(=O)N3C2)n1 [Compound 6102, 3,3-difluoro-2-methylbutan-2-yl((2R,6S,7R,9R,13aS,14aR,16aS,Z)-2-((3-ethoxyisoquinolin-1-yl)oxy)-7,9-dimethyl-14a-(((1-methylcyclopropyl)sulfonyl)carbamoyl)-5,16-dioxo-1,2,3,5,6,7,8,9,10,11,13a,14,14a,15,16,16a-hexadecahydrocyclopropa[e]pyrrolo[1,2-a][1,4]diazacyclopentadecin-6-yl)carbamate] | 0.1 to 0.5 | 0.51 to 1 | –
CC[C@@H]1C[C@@H](C)CC/C=C\[C@@H]2C[C@@]2(C(=O)NS(=O)(=O)C2(CF)CC2)NC(=O)[C@@H]2C[C@@H](Oc3nc(OC)cc4cc(OC)ccc34)CN2C(=O)[C@H]1NC(=O)OC(C)(C)C(F)(F)F [Compound 1194] | – | – | EC50 [1, 5]: 1.01 to 5 nM; EC50 [2, 6]: 5.01 to 35 nM
COc1ccc2c(O[C@@H]3C[C@H]4C(=O)N[C@]5(C(=O)NS(=O)(=O)C6CC6)C[C@H]5/C=C\CC[C@H](C)C[C@@H](C)[C@H](NC(=O)OC(C)(C)C)C(=O)N4C3)nc(-c3ccc(OC(C)C)nc3)cc2c1 [Compound 5212, tert-butyl ((2R,6S,7R,9S,13aS,14aR,16aS,Z)-14a-((cyclopropylsulfonyl)carbamoyl)-2-((3-(6-isopropoxypyridin-3-yl)-6-methoxyisoquinolin-1-yl)oxy)-7,9-dimethyl-5,16-dioxo-1,2,3,5,6,7,8,9,10,11,13a,14,14a,15,16,16a-hexadecahydrocyclopropa[e]pyrrolo[1,2-a][1,4]diazacyclopentadecin-6-yl)carbamate] | < 5.46 | < 5.46 | –
COc1cnc(O[C@@H]2C[C@H]3C(=O)N[C@]4(C(=O)NS(=O)(=O)C5(CF)CC5)C[C@H]4CCCC[C@@H](C)C[C@@H](C)[C@H](NC(=O)OC(C)(C)C)C(=O)N3C2)c2ccccc12 [Compound 5115, tert-butyl ((2R,6S,7R,9R,13aR,14aR,16aS)-14a-(((1-(fluoromethyl)cyclopropyl)sulfonyl)carbamoyl)-2-((4-methoxyisoquinolin-1-yl)oxy)-7,9-dimethyl-5,16-dioxooctadecahydrocyclopropa[e]pyrrolo[1,2-a][1,4]diazacyclopentadecin-6-yl)carbamate] | < 5.46 | < 5.46 | –

From patent US9499550B2 (BRISTOL-MYERS SQUIBB COMPANY, priority 2012, dated 2016)
